Data from US12195435B2, “5-methylchromone and the preparation method and application thereof” (HAINAN MEDICAL UNIVERSITY, priority 2020, dated 2025).

Target: tyrosinase
Test: Determination of the activity of compounds inhibiting tyrosinase (L-tyrosine substrate, absorbance at 475 nm)
Assay type: biochemical
Conditions: for IC50: L-tyrosine 0.1 mg/mL, tyrosinase 48 U/mL, pH 6.8, 37° C. 30 min, n = 3, read-out: IC50 ± SEM (tyrosinase inhibition); for tyrosinase inhibitory activity (in words, compared with aloesin): comparison with positive control aloesin
Method: Method for determining the activity of inhibiting tyrosinase: Firstly, adding the sample: 40 μL (10% DMSO, setting different concentrations (0, 25, 50, 100, 200 μg/mL)) into a 96-well plate (aloesin is the positive control), then adding L-tyrosine: 40 μL (0.1 mg/mL, dissolving in 0.1M potassium phosphate buffer solution, pH=6.8), tyrosinase: 40 μL (48 U/mL, dissolving in 0.1M potassium phosphate buffer solution, pH=6.8), and finally diluting the volume to 200 μL with potassium phosphate buffer solution, and detecting the absorbance at 475 nm on 0 min; after incubating at 37° C. for 30 min, measuring the absorbance.

`CC(=O)Cc1cc(=O)c2c(C)cc(O)c([C@@H]3O[C@H](CO)[C@@H](O)[C@H](O)[C@H]3O)c2o1` [Aloesin, aloesin, reference compound] was tested, and the IC50 was 2.7 ± 0.04 mM.

`Cc1cc(=O)c2c(C)cc(O)cc2o1` [Compound 1-1] showed an IC50 of 9.3 ± 0.09 mM.

Work on `CCc1cc(=O)c2c(C)cc(O)cc2o1` [Compound 1-2] yielded an IC50 of 6.2 ± 0.07 mM.

`CCCc1cc(=O)c2c(C)cc(O)cc2o1` [Compound 1-3] was tested, and the IC50 was 2.4 ± 0.1 mM.

In the case of `Cc1cc(O)cc2oc(C(C)(C)C)cc(=O)c12` [Compound 1-4], the IC50 is reported as 5.4 ± 0.03 mM.

For `CCCc1cc(=O)c2c(C)cc(OC)cc2o1` [Compound 1-5], the IC50 was 0.2 ± 0.07 mM and the “tyrosinase inhibitory activity (in words, compared with aloesin)” value was “higher than the tyrosinase inhibitory activity of aloesin”.

With `CCCc1cc(=O)c2c(C)cc(OCC)cc2o1` [Compound 1-6] the IC50 was 0.6 ± 0.03 mM and the “tyrosinase inhibitory activity (in words, compared with aloesin)” value was “higher than the tyrosinase inhibitory activity of aloesin”.
